≈ marks a conversion by molar mass, not a printed value.
Experiments:
Plasmodium falciparum [1] = test: Resistance index, ratio of EC50 for chloroquine, mefloquine, pyrimethamine and atovaquone-resistant Plasmodium falciparum TM90-C2B to EC50 for chloroquine and pyrimethamine-resistant Plasmodium falciparum W2; format: functional
[2] = Permeability of the compound by PAMPA method at pH 7.4; format: ADME; settings: read-out: permeability
J774 = test: Cytotoxicity against mouse J774 cells after 72 hrs by Cell titer 96 aqueous one solution cell proliferation assay; format: cell-based; settings: J774, 72 h
[3] = Partition coefficient, log D of the compound at pH 7.4 by HPLC analysis; settings: octanol/water
Plasmodium falciparum [4] = test: Antimalarial activity against chloroquine and pyrimethamine-resistant Plasmodium falciparum W2 infected in human A positive erythrocytes after 72 hrs by SYBR Green I assay; format: functional, organism-based; settings: W2, 72 h
[5] = Cytotoxicity index, ratio of EC50 for mouse J774 cells to EC50 for chloroquine, mefloquine, pyrimethamine and atovaquone-resistant Plasmodium falciparum TM90-C2B; format: cell-based; settings: read-out: Ratio EC50
Plasmodium falciparum [6] = test: Antimalarial activity against chloroquine, mefloquine, pyrimethamine and atovaquone-resistant Plasmodium falciparum TM90-C2B infected in human A positive erythrocytes after 72 hrs by SYBR Green I assay; format: functional, organism-based
Liver = test: Stability in mouse liver microsomes; format: ADME, Microsome; settings: microsomes
[7] = Aqueous solubility of compound at pH 7.4 by HPLC analysis; settings: buffer
Plasmodium falciparum [8] = test: Antimalarial activity against Plasmodium falciparum D6 infected in human A positive erythrocytes after 72 hrs by SYBR Green I assay; format: functional, organism-based; settings: D6, 72 h

## O=c1c2c([nH]c3ccc(-c4ccc(C(F)(F)F)cc4)cc13)CCCC2
Plasmodium falciparum [1]
  Ratio EC50: 0.77
[2]
  Papp: 36 ×10⁻⁶ cm/s
J774
  EC50: > 2000 nM
[3]
  logD: 3.6
Plasmodium falciparum [4]
  EC50: 58.2 nM
[5]
  selectivity ratio: ≥ 100
Plasmodium falciparum [6]
  EC50: 44.9 nM
Liver
  Stability: Stable
[7]
  solubility: 2 µM (≈ 0.687 µg/mL)

## COc1cc2[nH]c3c(c(=O)c2cc1Cl)CS(=O)(=O)CC3
Plasmodium falciparum [1]
  Ratio EC50: 1.76
J774
  EC50: > 20000 nM
[3]
  logD: 1
Plasmodium falciparum [4]
  EC50: 4710 nM
[5]
  selectivity ratio: ≥ 100
Plasmodium falciparum [6]
  EC50: 8410 nM
Liver
  Stability: Stable
[7]
  solubility: 24 µM (≈ 7.53 µg/mL)

## O=C1CC(c2ccc(C(F)(F)F)cc2)Cc2c1c(=O)c1cc(Cl)ccc1n2O (centres undefined) [FLOXACRINE]
Plasmodium falciparum [8]
  EC50: 270 nM
Plasmodium falciparum [4]
  EC50: 478 nM
[5]
  selectivity ratio: ≥ 100

## O=c1c2c([nH]c3cc(-c4ccc(C(F)(F)F)cc4)ccc13)CCCC2
Plasmodium falciparum [1]
  Ratio EC50: 0.24
[2]
  Papp: 250 ×10⁻⁶ cm/s
J774
  EC50: > 2000 nM
[3]
  logD: 2.45
Plasmodium falciparum [4]
  EC50: 34.9 nM
[5]
  selectivity ratio: ≥ 100
Plasmodium falciparum [6]
  EC50: 8.7 nM
Liver
  Stability: Stable
[7]
  solubility: 3 µM (≈ 1.03 µg/mL)
